From PMC5690597, “Suppression and resolution of autoimmune arthritis by rhesus θ-defensin-1, an immunomodulatory macrocyclic peptide” (PLoS ONE, 2017)
Bridge positions count the residues as written; N and C are the ends. Peptide text beside a SMILES is read from it.

Tested on: DA/OlaHsd rats with pristane-induced arthritis
Assay: Pristane-induced arthritis (PIA), established disease (AS ≥ 3)
Format: in vivo, rat
Experimental: Female DA/OlaHsd (D blood group allele and Agouti, also known as Dark Agouti), rats were obtained from Harlan Laboratories (Indianapolis, IN). Animals were allowed to acclimate for 48–72 hours prior to experimental use. Animals were fed standard chow ad lib during a 12-hour day/night cycle. PIA was induced in 5–7 week old animals (90–100 gm) by intradermal injection of 250 μl pristane (Sigma) divided into 3–5 sites at the base of the tail. Animals were monitored daily and disease severity of each limb was scored 0–4 using the method of Brand et al.. The severity scores for all limbs of individual animals were totaled to give an individual’s arthritis severity score (AS) ranging from zero for normal animals to maximum disease score of sixteen. […] In three separate trials, treatment was also blinded to scorers. […] Treatment with saline (vehicle), RTD-1, or anti-arthritic agents was randomized and initiated when an animal first presented with an AS of 3 or more. RTD-1 was administered subcutaneously with doses ranging from 0.2 to 5.0 mg/kg in an injection volume of 0.5 ml at intervals ranging from once a day (qd) to once every seven days (q7d). MTX was administered at 0.25 mg/kg by intraperitoneal injection q3d. Etanercept was administered at 0.4 mg/kg by subcutaneous injection q3d.

CC[C@H](C)[C@@H]1NC(=O)[C@@H]2CSSC[C@H](NC(=O)[C@H](CCCNC(=N)N)NC(=O)[C@@H]3CSSC[C@H](NC1=O)C(=O)N[C@@H]([C@@H](C)O)C(=O)N[C@@H](CCCNC(=N)N)C(=O)NCC(=O)N[C@@H](Cc1ccccc1)C(=O)N3)C(=O)N[C@@H](CC(C)C)C(=O)N[C@H]1CSSC[C@H](NC(=O)[C@H](C(C)C)NC(=O)CNC(=O)[C@H](CCCNC(=N)N)NC(=O)[C@H](CCCNC(=N)N)NC1=O)C(=O)N[C@@H](CCCNC(=N)N)C(=O)N2 [RTD-1, rhesus θ-defensin 1] (cyclo(GFCRCLCRRGVCRCICTR); disulfide 3-16, 5-14, 7-12)
complete resolution of disease (AS = 0), share of animals (5 mg/kg s.c. daily for 11 days, 9 of 31 animals, saline 2.5% (1 of 40)): 29%
reduction of mean arthritis severity score (AS) at the end of the observation period compared with vehicle controls (5 mg/kg s.c. daily for 11 days, DA rats with PIA, AS ≥ 3 at start, 6 independent experiments): 69%
disease resolution by dosing interval (5 mg/kg s.c. daily, or once every 2, 3, or 5 days, n = 5 per group, single experiment): equivalent disease resolution
rate of complete disease resolution on day 11, comparison with RA drugs (RTD-1 s.c. (4 of 16), MTX 0.25 mg/kg i.p. q3d (1 of 22), etanercept 0.4 mg/kg s.c. q3d (0 of 21), saline 0 of 19, 2 independent experiments): 25%
therapeutic effect on AS compared to vehicle control (daily s.c. 0.2 mg/kg): no therapeutic effect
reduction in AS compared to vehicle control (daily s.c. 1 mg/kg): modest, but not statistically significant reductions in AS
reduction in AS compared to vehicle control by treatment day 3 (daily s.c. 3 or 5 mg/kg, 2 independent experiments): significant (P ≤ 0.0015) and similar reductions in AS
